According to article PMC11672801, “Synthesis of Temporin-SHa Retro Analogs with Lysine Addition/Substitution and Antibiotic Conjugation to Enhance Antibacterial, Antifungal, and Anticancer Activities” (Antibiotics, 2024):
Converted amounts (≈) assume the structure as drawn. Like-named read-outs stand apart in the source and are kept apart here. Where a SMILES comes first, the peptide text is derived from it. [ ]: non-standard residue; d: D form. The star is where a group is joined. Levofloxacinoyl = C[C@H]1COc2c(N3CCN(C)CC3)c(F)cc3c(=O)c(C(=O)*)cn1c23; βAla = NCCC(=O)O

Legend:
[1] = system: cancer cells (MCF-7, HeLa); parameters: species or system human
Experimental: The selectivity of action of the analogs against micro-organisms or cancer cells was further evaluated through calculation of their selectivity indexes (SIs). SIs were determined using either the MIC on micro-organisms or IC50 on cancer cells compared to HC50 values, and they are reported in Table 6.

S. aureus (NCTC 13277) = details: >99% inhibition of growth, MH broth, 20-22 h, 37 °C
[2] = system: human red blood cells (RBC); test: Hemolytic assay; assay type: cell-based
Experimental: For the hemolytic assay, fresh human blood (2 mL) was obtained from a healthy donor in EDTA tube while following the protocol of approval from the Independent Ethics Committee of ICCBS (approval number ICCBS/IEC-047-HB-2019/Protocol/1.0). The blood was centrifuged and upper supernatant plasma was removed. The cell pellets were washed with sterile PBS three times. The washed blood cells were then diluted 25 times to make 4% concentration of the initial blood cells. Red blood cells (500 µL) were treated with increasing concentrations of analogs, with triton X-100 at 0.1% being used as positive control giving 100% hemolysis. After 1 h of incubation at 37 °C, tubes were centrifuged at 800 rpm for 5 min to pellet down red blood cells. After centrifugation, 200 µL of supernatant were transferred into a 96 well plate and the absorbance was recorded at 576 nm using a microplate reader (MultiSkan Go, ThermoScientific). Then, the following formula was applied to calculate percent hemolysis: % Hemolysis=O.D of test sample−O.D of PBS control/O.D of Tritox×positive control−O.D of PBS control×100

S. typhi (ATCC 14028) = details: ATCC 14028
E. coli (ATCC 25922) = test: Antibacterial broth microdilution MIC assay; assay type: cell-based, Escherichia coli; details: >99% inhibition of growth, MH broth, 20-22 h, 37 °C
Experimental: (§1) The antibacterial activity of peptide analogs was tested against different bacterial strains, i.e., Salmonella enterica subsp. enterica serotype Typhimurium or Salmonella typhi (ATCC 14028), Staphylococcus aureus (NCTC 13277), Bacillus subtilis (ATCC 23857), Escherichia coli (ATCC 25922), and Pseudomonas aeruginosa (ATCC 10145). These strains were obtained from the microbial bank of Dr. Panjwani Center for Molecular Medicine and Drug research (PCMD), International Center for Chemical and Biological Sciences (ICCBS), University of Karachi. Colonies of these bacterial strains were grown in respective agar media, then inoculated in Mueller Hinton (MH) broth (Oxoid, UK) and incubated at 37 °C overnight. The peptide solutions were first diluted 1 in 100 (from the stock solution at 20 mM) and then further two-fold dilution in MH broth in a sterile 96-well plate was performed, resulting in 100 µL of broth containing increasing concentrations of analogs. Bacteria in their exponential growth phase were diluted in MH broth, and 100 µL of this suspension was added in each well. […] Then, these plates were incubated at 37 °C for 20–22 h. MIC (Minimum Inhibitory Concentration) values were determined as the concentrations of peptides causing >99% inhibition of bacterial growth.

B. subtilis (ATCC 23857) = test: Antibacterial broth microdilution MIC assay; assay type: cell-based, Bacillus subtilis; details: >99% inhibition of growth, MH broth, 20-22 h, 37 °C
Experimental: as §1

[3] = system: P. aeruginosa (ATCC 10145); test: Antibacterial broth microdilution MIC assay; assay type: cell-based, Pseudomonas aeruginosa; details: >99% inhibition of growth, MH broth, 20-22 h, 37 °C
Experimental: as §1

[4] = system: Human breast cancer (MCF-7) cells; test: cells; assay type: cell-based; details: 24 h
Experimental: (§2) Human breast cancer (MCF-7) and human cervical cancer (HeLa) cells were obtained from the cell culture bank of PCMD in ICCBS, University of Karachi. These cells were maintained in Dulbecco’s Modified Eagle Medium (DMEM), supplemented with 10% fetal bovine serum, and incubated at 37 °C and 5% CO2. The antiproliferative activity of the samples was determined by a MTT assay. Briefly, the cells were washed with PBS and trypsinized. After determination of the cell number using Malassez cell counting, 100 µL of the cell suspension were seeded in a 96-well plate at the density of 6000 cells/well and incubated at 37 °C and 5% CO2. After 24 h, the cells were treated with increasing concentrations of analogs. The next day, media was removed and 200 µL of MTT dye (0.5 mg/mL) was added in each well and incubated for 3 h at 37 °C in 5% CO2 incubator. Then, the media was removed and 100 µL of DMSO was added to solubilize formazan crystals. After one minute of shaking, the absorbance was recorded at 540 nm in microplate reader (Multiskan GO, ThermoScientific, Waltham, MA, USA). Finally, the percent inhibition of proliferation was calculated using the following formula: % inhibition of proliferation=O.D of treated well−O.D of media control/O.D of untreated control−O.D of media control×100

[5] = system: human cervical cancer (HeLa) cells; test: cells; assay type: cell-based; details: 24 h
Experimental: as §2

C. albicans (ATCC 36082) = test: microbe, parasite or virus in culture
Experimental: Candida albicans (ATCC 36082) was cultured on Sabourad Dextrose Agar (SDA). A single colony was inoculated in Sabouraud Dextrose Broth (SDB) medium and grown overnight at 37 °C while shaking. The next day, the susceptibility of C. albicans was tested using a broth microdilution assay. Peptide analogs were diluted in SDB media by two-fold dilution, resulting in 100 µL of medium containing increasing concentrations of analogs. The overnight culture (turbidity at OD600 = 1) was 1000× diluted in SDB. Then 100 µL of this suspension was added to each well, resulting in a final 200 µL suspension containing 2–4 × 10^5 CFU/mL. The plate was incubated at 37 °C for 24 h. The next day, MIC (Minimum Inhibitory Concentration) values were determined as the concentrations of peptides causing > 99% inhibition of yeast growth.

SMILES: CC[C@H](C)[C@H](NC(=O)[C@@H](NC(=O)CNC(=O)[C@H](CCSC)NC(=O)[C@H](CC(C)C)NC(=O)CNC(=O)[C@H](CCCCN)NC(=O)[C@H](CC(C)C)NC(=O)[C@@H](N)Cc1ccccc1)C(C)C)C(=O)N[C@H](C)C(=O)N[C@@H](CO)C(=O)N[C@@H](CC(C)C)C(=O)N[C@@H](Cc1ccccc1)C(=O)N[C@@H](CCCCNC(=O)c1cn2c3c(c(N4CCN(C)CC4)c(F)cc3c1=O)OC[C@@H]2C)C(N)=O [RLFP-1 (4), H-Phe^1-Leu^2-Lys^3-Gly^4-Leu^5-Met^6-Gly^7-Val^8-Ile^9-D-Ala^10-Ser^11-Leu^12-Phe^13-Lys^14(LF)-NH2] (H-FLKGLMGVI[dA]SLFK(Levofloxacinoyl)-NH2)
- IC50 [1]: > 100 µM
- MIC S. aureus (NCTC 13277) (S. aureus (NCTC 13277)): 50 µM (≈ 93.3 µg/mL)
- HC50 on Human Red Blood Cells (RBCs) [2]: 98.6 µM
- HC50 on Human Red Blood Cells (RBCs) ([2]; red cells of human, 1 h): 98.9 µM
- MIC S. typhi (ATCC 14028) (S. typhi (ATCC 14028)): 25 µM (≈ 46.7 µg/mL)
- MIC (E. coli (ATCC 25922)): >200 µM
- MIC (B. subtilis (ATCC 23857)): 50 µM (≈ 93.3 µg/mL)
- MIC [3]: >200 µM
- IC50 [4]: > 100 µM
- IC50 [5]: > 100 µM
- MIC C. albicans (ATCC 36082) (C. albicans (ATCC 36082); ATCC 36082, 24 h): >250 µM

SMILES: CC[C@H](C)[C@H](NC(=O)[C@@H](NC(=O)CNC(=O)[C@H](CCSC)NC(=O)[C@H](CC(C)C)NC(=O)CNC(=O)[C@H](CCCCN)NC(=O)[C@H](CC(C)C)NC(=O)[C@H](Cc1ccccc1)NC(=O)CCNC(=O)c1cn2c3c(c(N4CCN(C)CC4)c(F)cc3c1=O)OC[C@@H]2C)C(C)C)C(=O)N[C@H](C)C(=O)N[C@@H](CO)C(=O)N[C@@H](CC(C)C)C(=O)N[C@@H](Cc1ccccc1)C(=O)N[C@@H](CCCCN)C(N)=O [RLFP-3 (6), LF-β-Ala-Phe^1-Leu^2-Lys^3-Gly^4-Leu^5-Met^6-Gly^7-Val^8-Ile^9-D-Ala^10-Ser^11-Leu^12-Phe^13-Lys^14-NH2] ({Levofloxacinoyl-βAla}-FLKGLMGVI[dA]SLFK-NH2)
- MIC S. aureus (NCTC 13277) (S. aureus (NCTC 13277)): 12.5 µM (≈ 24.2 µg/mL)
- HC50 on Human Red Blood Cells (RBCs) ([2]; red cells of human, 1 h): 6.6 µM
- MIC S. typhi (ATCC 14028) (S. typhi (ATCC 14028)): 3.12 µM (≈ 6.04 µg/mL)
- MIC (E. coli (ATCC 25922)): 25 µM (≈ 48.4 µg/mL)
- MIC (B. subtilis (ATCC 23857)): 1.56 µM (≈ 3.02 µg/mL)
- MIC [3]: 12.5 µM (≈ 24.2 µg/mL)
- IC50 [4]: 13.3 µM
- IC50 [5]: 12.1 µM
- MIC C. albicans (ATCC 36082) (C. albicans (ATCC 36082); >99% inhibition of yeast growth, SDB, 24 h, 37 °C): 3.12 µM (≈ 6.04 µg/mL)
